Legend:
Type in all cases: in vivo
[1] = tested on: ryegrass, Italian (Italian ryegrass, Lolium multiflorum); test: Test A preemergence; conditions: Lolium multiflorum, pre-emergence, 240 h, Preemergence
Method in brief: (§1)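 Greenhouse, ~10 d after spray; visual injury vs untreated controls, 0 = no effect, 100 = complete control. Preemergence: directed soil spray over planted seeds. Postemergence: plants 2–10 cm, 1–2 leaf stage. Loam/sand blend. Compound in non-phytotoxic solvent with surfactant.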

[2] = tested on: giant foxtail (Setaria faberii); test: Test A preemergence; conditions: Setaria faberi, pre-emergence, 240 h, Preemergence
Method in brief: as §1

[3] = tested on: Kochia (Kochia scoparia); test: Test A preemergence; conditions: Bassia scoparia, pre-emergence, 240 h, Preemergence
Method in brief: as §1

[4] = tested on: pigweed (Amaranthus retroflexus); test: Test A preemergence; conditions: Amaranthus retroflexus, pre-emergence, 240 h, Preemergence
[5] = tested on: ragweed (common ragweed, Ambrosia elatior); test: Test A preemergence; conditions: Ambrosia artemisiifolia, pre-emergence, 240 h, Preemergence
Method in brief: as §1

[6] = tested on: barnyardgrass (Echinochloa crus-galli); test: Test A preemergence; conditions: Echinochloa crus-galli, pre-emergence, 240 h, Preemergence
Method in brief: as §1

[7] = tested on: ryegrass, Italian (Italian ryegrass, Lolium multiflorum); test: Test A postemergence; conditions: Lolium multiflorum, post-emergence, 240 h, Postemergence, read-out: Ryegrass, Italian plant response rating (0 to 100 scale)
Method in brief: as §1

[8] = tested on: giant foxtail (Setaria faberii); test: Test A postemergence; conditions: Setaria faberi, post-emergence, 240 h, Postemergence, read-out: Foxtail, Giant plant response rating (0 to 100 scale)
Method in brief: as §1

[9] = tested on: corn (Zea mays); test: Test A postemergence; conditions: Zea mays, post-emergence, 240 h, Postemergence, read-out: Corn plant response rating (0 to 100 scale)
Method in brief: as §1

[10] = tested on: Kochia (Kochia scoparia); test: Test A postemergence; conditions: Bassia scoparia, post-emergence, 240 h, Postemergence, read-out: Kochia plant response rating (0 to 100 scale)
Method in brief: as §1

[11] = tested on: pigweed (Amaranthus retroflexus); test: Test A postemergence; conditions: Amaranthus retroflexus, post-emergence, 240 h, Postemergence, read-out: Pigweed plant response rating (0 to 100 scale)
Method in brief: as §1

[12] = tested on: blackgrass (Alopecurus myosuroides); test: Test A postemergence; conditions: Alopecurus myosuroides, post-emergence, 240 h, Postemergence, read-out: Blackgrass plant response rating (0 to 100 scale)
Method in brief: as §1

[13] = tested on: ragweed (common ragweed, Ambrosia elatior); test: Test A postemergence; conditions: Ambrosia artemisiifolia, post-emergence, 240 h, Postemergence, read-out: Ragweed plant response rating (0 to 100 scale)
Method in brief: as §1

[14] = tested on: Galium (catchweed bedstraw, Galium aparine); test: Test A postemergence; conditions: Galium, post-emergence, 240 h, Postemergence, read-out: Galium plant response rating (0 to 100 scale)
Method in brief: as §1

[15] = tested on: wheat (Triticum aestivum); test: Test A postemergence; conditions: Triticum aestivum, post-emergence, 240 h, Postemergence, read-out: Wheat plant response rating (0 to 100 scale)
Method in brief: as §1

[16] = tested on: barnyardgrass (Echinochloa crus-galli); test: Test A postemergence; conditions: Echinochloa crus-galli, post-emergence, 240 h, Postemergence
Method in brief: as §1

[17] = tested on: sedge, umbrella (small-flower umbrella sedge, Cyperus difformis); test: Test B flooded paddy test; conditions: Cyperus difformis, 360 h, Flood, 250 g ai/ha; visually evaluated after 13 to 15 d; read-out: Plant response rating, Sedge, Umbrella (0 to 100 scale where 0 is no effect and 100 is complete control)
Method in brief: (§2)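 Flooding to 3 cm over soil accompanied treatment, which consisted of adding compound to the standing water around 2-leaf plants; depth was then maintained. Visual assessment versus controls followed at 13 to 15 d (scale 0–100, 0 meaning no effect).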

[18] = tested on: rice (Oryra sativa); test: Test B flooded paddy test; conditions: Oryza sativa, 360 h, Flood, 250 g ai/ha; visually evaluated after 13 to 15 d; read-out: Plant response rating, Rice (0 to 100 scale where 0 is no effect and 100 is complete control)
Method in brief: as §2

[19] = tested on: ducksalad (Heteranthera limosa); test: Test B flooded paddy test; conditions: Heteranthera limosa, 360 h, Flood, 250 g ai/ha; visually evaluated after 13 to 15 d; read-out: Plant response rating, Ducksalad (0 to 100 scale where 0 is no effect and 100 is complete control)
Method in brief: as §2

[20] = tested on: barnyardgrass (Echinochloa crus-galli); test: Test B flooded paddy test; conditions: Echinochloa crus-galli, 360 h, Flood, 250 g ai/ha; visually evaluated after 13 to 15 d; read-out: Plant response rating, Barnyardgrass (0 to 100 scale where 0 is no effect and 100 is complete control)
Method in brief: as §2

[21] = 125 g ai/ha, visual rating about 10 d after treatment
[22] = 31 g ai/ha, 0 is no effect, 100 is complete control

## COc1c([C@H]2CN(C)C(=O)[C@@H]2C(=O)Nc2cccc(F)c2F)cccc1C(F)(F)F [Compound 1339]
[1]; 31 g ai/ha, 0 to 100 scale where 0 is no effect and 100 is complete control, read-out: Ryegrass, Italian plant response rating
  pest or weed control at 31 g/ha: 0%
[1]; 125 g ai/ha, 0 to 100 scale (0 no effect, 100 complete control), read-out: Plant response rating, Ryegrass, Italian
  pest or weed control at 125 g/ha: 20%
[2]; 31 g ai/ha, 0 to 100 scale where 0 is no effect and 100 is complete control, read-out: Foxtail, Giant plant response rating
  pest or weed control at 31 g/ha: 80%
[2]; 125 g ai/ha, 0 to 100 scale (0 no effect, 100 complete control), read-out: Plant response rating, Foxtail, Giant
  pest or weed control at 125 g/ha: 90%
[3]; 31 g ai/ha, 0 to 100 scale where 0 is no effect and 100 is complete control, read-out: Kochia plant response rating
  pest or weed control at 31 g/ha: 0%
[3]; 125 g ai/ha, 0 to 100 scale (0 no effect, 100 complete control), read-out: Plant response rating, Kochia
  pest or weed control at 125 g/ha: 50%
[4]; 31 g ai/ha, 0 to 100 scale where 0 is no effect and 100 is complete control, read-out: Pigweed plant response rating
  pest or weed control at 31 g/ha: 0%
[4]; 125 g ai/ha, 0 to 100 scale (0 no effect, 100 complete control), read-out: Plant response rating, Pigweed
  pest or weed control at 125 g/ha: 0%
[5]; 31 g ai/ha, 0 to 100 scale where 0 is no effect and 100 is complete control, read-out: Ragweed plant response rating
  pest or weed control at 31 g/ha: 0%
[5]; 125 g ai/ha, 0 to 100 scale (0 no effect, 100 complete control), read-out: Plant response rating, Ragweed
  pest or weed control at 125 g/ha: 0%
[6]; 31 g ai/ha, 0 to 100 scale where 0 is no effect and 100 is complete control, read-out: Barnyardgrass plant response rating
  pest or weed control at 31 g/ha: 90%
[6]; 125 g ai/ha, 0 to 100 scale (0 no effect, 100 complete control), read-out: Plant response rating, Barnyardgrass
  pest or weed control at 125 g/ha: 90%
[7]; [21]
  pest or weed control at 125 g/ha: 0%
[7]; [22]
  pest or weed control at 31 g/ha: 0%
[8]; [21]
  pest or weed control at 125 g/ha: 80%
[8]; [22]
  pest or weed control at 31 g/ha: 70%
[9]; [21]
  plant injury at 125 g/ha: 0%
[9]; [22]
  plant injury at 31 g/ha: 0%
[10]; [21]
  pest or weed control at 125 g/ha: 20%
[10]; [22]
  pest or weed control at 31 g/ha: 0%
[11]; [21]
  pest or weed control at 125 g/ha: 30%
[11]; [22]
  pest or weed control at 31 g/ha: 20%
[12]; [21]
  pest or weed control at 125 g/ha: 0%
[12]; [22]
  pest or weed control at 31 g/ha: 0%
[13]; [21]
  pest or weed control at 125 g/ha: 20%
[13]; [22]
  pest or weed control at 31 g/ha: 0%
[14]; [21]
  pest or weed control at 125 g/ha: 50%
[14]; [22]
  pest or weed control at 31 g/ha: 30%
[15]; [21]
  plant injury at 125 g/ha: 0%
[15]; [22]
  plant injury at 31 g/ha: 0%
[16]; 125 g ai/ha, visual rating about 10 d after treatment, read-out: Barnyardgrass plant response rating (0 to 100 scale, 0 no effect, 100 complete control)
  pest or weed control at 125 g/ha: 90%
[16]; 31 g ai/ha, 0 is no effect, 100 is complete control, read-out: Barnyardgrass plant response rating (0 to 100 scale)
  pest or weed control at 31 g/ha: 70%
[17]
  pest or weed control at 250 g/ha: 0%
[18]
  pest or weed control at 250 g/ha: 60%
[19]
  pest or weed control at 250 g/ha: 100%
[20]
  pest or weed control at 250 g/ha: 95%
